Conditions: from C=CCC(C)(C)COC(=O)N[C@H](C(=O)N1C[C@H](Oc2cc(=O)[nH]c3cc(OC)c(C=C)cc23)C[C@H]1C(=O)OC)C1CCCCC1; rcm bond; Zhan 1b catalyst; DCM; 5.0 mM; 40.0 °C; 32.0 h

## COC(=O)[C@@H]1C[C@@H]2CN1C(=O)[C@H](C1CCCCC1)NC(=O)OCC(C)(C)C/C=C/c1cc3c(cc(=O)[nH]c3cc1OC)O2
  ring closure, yield of all isomers: 99%
